# Assay results published in patent US8642070B2, “Feed additive composition for ruminants, and feed containing the same, and method of fabricating such feed additive composition for ruminants” (Bio Science Co., Ltd., priority 2004, dated 2014).
# Assay: Stability of the biologically active substance at the melting temperature of the spray melt blending liquid
# Format: physicochemical
# Conditions: for Mean Content (%): liquid agitated 1 hour before injection
# Protocol: Next, stability of the biologically active substance was studied in order to determine optimum temperature for the spray melt blending liquid used in the granulation through injection. […] However, when kept warmed below 75° C., the content remains high. Based on this fact, in the case of a rumen bypass product with a biologically active substance, employing a thermally vulnerable vitamins such as a calcium pantothenate, such vitamins can be contained in the preparation without suffering from any damage when granulation through injection is carried out, limiting the temperature of spray melt blending liquid to less than 75° C.
Mean Content (%) (Melting Temperature 60 °C),Mean Content (%) (Melting Temperature 65 °C),Mean Content (%) (Melting Temperature 70 °C),Mean Content (%) (Melting Temperature 75 °C),Mean Content (%) (Melting Temperature 80 °C),"content estimated when kept warmed above 90° C. (kept warmed above 90° C., extrapolated from Table 4)",Compound
98.6%,96.9%,97.1%,94.5%,71.5%,below 50%,Calcium Pantothenate
99.5%,98.2%,100.3%,101.2%,102.0%,–,O=C(O)c1cccnc1 [Nicotinic Acid]
100.5%,100.3%,103.6%,104.2%,109.6%,–,CSCC[C@H](N)C(=O)O [Methionine]
